According to patent publication US5081584A, “Computer-assisted design of anti-peptides based on the amino acid sequence of a target peptide” (United States of America, priority 1989, dated 1992):
Ends that are not written are not given here.

Key:
[1] = molecular target: target 13-mer (GP-1), amino terminus of a membrane glycoprotein; experiment: HPLAC zonal elution on column with immobilized target 13-mer (GP-1); assay type: binding, rat; conditions: for binding constants (in words): text summary of Table 4; for Km: zonal elution, immobilized GP-1, 100 mM NH4OAc pH 5.7, flow rate 1.0 ml/min, extrapolated to [P]=0, read-out: Equilibrium binding constant (dissociation constant) KM/P
Description: (§1) The recognition of the target peptide by the anti-sense peptides was evaluated by high performance affinity chroma tography (I. Chaiken, Ed., "Analytical Affinity Chromatography," CRC Press, Boca Raton, 1987). This system was chosen because it allows direct measurement of molecular interactions and it is not limited by either molecular size or by the need for a specialized detection system. The target 13-mer (GP-1) was immobilized on an affinity support system. The binding properties to the target peptide were evaluated by zonal elution methods (FIG. III) (Y. Shai et al, Biochem., 26:669 (1987)). The anti-sense recognition peptides were eluted on the sense column and the retardation volume of the peptide (V) was compared to the column void volume (Vo). Equilibrium binding constants were determined by loading varying amounts of the anti-sense peptides on the column and employing the equation: [formula] where KM/P represents the dissociation constant for the binding process,
MT is the amount of target peptide immobilized and
[P]represents the amount of recognition peptide eluted E. Swaisgood et al, Biochem., 25:4148 (1986)).
The KM/P values are obtained subsequent to extrapolation to [P]=0.
Values were obtained by zonal elution on a column with immobilized target
peptide (GP1) equilibrated with 100 mM NH4 OAc, pH = 5.7 with column
flow rate of 1.0 ml/min.

[2] = molecular target: putative ATP binding region of the raf (raf 357-376) (Rattus norvegicus, UniProt P11345); experiment: HPLAC on immobilized raf ATP binding region
Description: The values of the dissociation constants (KM/P) are obtained in 0.1 M NH4 CH3 COO pH 5.7.
as §1, with “The anti-sense recognition peptides were eluted on the sense column and the retardation volume of the peptide (V) was compared to the column void volume (Vo).” left out
In order to evaluate the general applicability of the complementary scoring program, a comparison was made between the DNA derived anti-sense peptide and a computer generated recognition-peptide. […] To compare the relative affinities of the DNA derived anti-sense peptide (FAR-[…]) and the computer generated recognition peptide (FARCG--[…]), the raf ATP binding region ([…]) was immobilized on an affinity support and the two anti-sense peptides evaluated by HPLAC techniques.

AAQHGGGLGVQVE [CODON-1, AAQHGGGLGVQVE]
binding constants (in words) [1]: millimolar range
Km [1]: 920 µM

AAQHGRGFGIQIE [CODON-2]
binding constants (in words) [1]: millimolar range
Km [1]: 460 µM

FHGHISMPFAFVYSSKAAAA [FAR-CG]
Km ([2]; immobilized raf ATP binding region GSGSFGTVYKGKWHGDVAVK, 0.1 M NH4CH3COO pH 5.7, read-out: Equilibrium binding constant KM/P): 8 µM
fold higher affinity for the target peptide compared to the DNA derived anti-sense peptide ([2]; relative to FAR): ~50 fold
